Assay results as given in patent US8034803B2, “Photodynamic therapy of occult age-related macular degeneration” (QLT Inc., priority 2001, dated 2011).
Read-outs that look alike come from different tables or passages of the source.

Experiments:
[1] = tested on: CNV lesions classified as predominantly classic or minimally classic; conditions: cited from earlier work
[2] = tested on: occult choroidal neovascular lesions; experiment: Verteporfin PDT of occult CNV lesions versus placebo, best corrected visual acuity at 24 months; type: in vivo, human
Procedure: Subjects having, suspected of having, or otherwise afflicted with occult neovascular lesions were evaluated for best corrected visual acuity as outlined in Example 1, and their lesion size determined angiographically as outlined in Example 2. […] The greatest linear dimension of the entire CNV lesion was […], corresponding to 9 Disc Areas. Subjects were evaluated for visual acuity and lesion size about 1 week prior to treatment. Subjects were randomly assigned to a treatment group and a placebo group.
For each subject in the treatment group, a 15 mg-vial of liposomally-formulated verteporfin (Verteporfin for Injection (Visudyne™) was reconstituted with 7 mL of sterile water for injection to provide 7.5 mL containing a final concentration of 2 mg/mL. The volume of reconstituted drug required to achieve a dose of 6 mg/M^2 (based upon the height and weight of the subject, calculated from a nomogram) was withdrawn from the vial and diluted with 5% dextrose for injection to make a total infusion volume of 30 mL. The full infusion volume was administered intravenously over 10 minutes using an appropriate syringe pump and in-line filter. Fifteen minutes after the start of the infusion, light was administered to the lesion from a diode laser through a fiber optic delivered via a slit lamp, and utilizing a suitable lens. A light dose of 50J/cm^2 was applied at a fluency rate of 600 mW/cm^2, 50J/cm^2 (83 second exposure).
Subjects were evaluated by fluorescein angiography approximately every three months, and their best corrected visual acuity was assessed. Subjects were retreated if evidence of CNV leakage was detected by fluorescein angiography.

[3] = baseline visual acuity <65 letters, lesion size all, 24 months
[4] = baseline visual acuity <65 letters, lesion size ≦4DA, 24 months
[5] = baseline visual acuity <65 letters, lesion size ≧4DA, 24 months
[6] = baseline visual acuity ≧65 letters, lesion size all, 24 months
[7] = baseline visual acuity ≧65 letters, lesion size ≦4DA, 24 months
[8] = baseline visual acuity ≧65 letters, lesion size ≧4DA, 24 months

verteporfin
treatment benefit with verteporfin PDT ([1]; lesions classified as minimally classic): did not | treatment benefit with verteporfin PDT ([1]; lesions classified as predominantly classic): large treatment benefit | 30 Letter Response Rate (percent of subjects losing less than 30 letters) Difference V-P [2, 3]: 27.5% | Mean VA Difference [2, 3]: 11.7 | 15 Letter Response Rate (percent of subjects losing less than 15 letters) Difference V-P ([2]; baseline visual acuity <65 letters, lesion size all, 24 months after initial treatment, 6 mg/M^2 i.v., 50 J/cm^2): 33.8% | 15 Letter Response Rate (percent of subjects losing less than 15 letters) Difference V-P [2, 4]: 43.8% | 30 Letter Response Rate (percent of subjects losing less than 30 letters) Difference V-P [2, 4]: 19.4% | Mean VA Difference [2, 4]: 12.3 | 15 Letter Response Rate (percent of subjects losing less than 15 letters) Difference V-P [2, 5]: 21.5% | 30 Letter Response Rate (percent of subjects losing less than 30 letters) Difference V-P [2, 5]: 30.0% | Mean VA Difference [2, 5]: 9.4 | 15 Letter Response Rate (percent of subjects losing less than 15 letters) Difference V-P [2, 6]: −3.9% | 30 Letter Response Rate (percent of subjects losing less than 30 letters) Difference V-P [2, 6]: 8.5% | Mean VA Difference [2, 6]: 1.5 | 15 Letter Response Rate (percent of subjects losing less than 15 letters) Difference V-P [2, 7]: 12.5% | 30 Letter Response Rate (percent of subjects losing less than 30 letters) Difference V-P [2, 7]: 26.8% | Mean VA Difference [2, 7]: 9.3 | 15 Letter Response Rate (percent of subjects losing less than 15 letters) Difference V-P [2, 8]: −24% | 30 Letter Response Rate (percent of subjects losing less than 30 letters) Difference V-P [2, 8]: −5.3% | Mean VA Difference [2, 8]: −3.3 | response of subjects having occult lesions to PDT ([2]; study of Example 3, in words): respond to PDT
